According to ChEMBL document CHEMBL1139456, “Discovery of alpha,gamma-diketo acids as potent selective and reversible inhibitors of hepatitis C virus NS5b RNA-dependent RNA polymerase” (J Med Chem, 2004):

Tests used:
[1] = molecular target: RNA-directed RNA polymerase (Hepacivirus hominis, UniProt O39930); assay: Inhibitory activity against Hepatitis C virus RNA dependent RNA polymerase nonstructural protein 5B
Nucleic Acid [2] = assay: Inhibitory activity against alpha human DNA polymerase was determined; type: nucleic-acid assay
[3] = molecular target: Human immunodeficiency virus type 1 reverse transcriptase (Human immunodeficiency virus 1, UniProt Q72547); assay: Inhibitory activity against HIV-1 reverse transcriptase was determined
Nucleic Acid [4] = assay: Inhibitory activity against gamma human DNA polymerase was determined; type: nucleic-acid assay
Nucleic Acid [5] = assay: Inhibitory activity against beta human DNA polymerase was determined; type: nucleic-acid assay

Sequence of RNA-directed RNA polymerase (O39930 whole entry): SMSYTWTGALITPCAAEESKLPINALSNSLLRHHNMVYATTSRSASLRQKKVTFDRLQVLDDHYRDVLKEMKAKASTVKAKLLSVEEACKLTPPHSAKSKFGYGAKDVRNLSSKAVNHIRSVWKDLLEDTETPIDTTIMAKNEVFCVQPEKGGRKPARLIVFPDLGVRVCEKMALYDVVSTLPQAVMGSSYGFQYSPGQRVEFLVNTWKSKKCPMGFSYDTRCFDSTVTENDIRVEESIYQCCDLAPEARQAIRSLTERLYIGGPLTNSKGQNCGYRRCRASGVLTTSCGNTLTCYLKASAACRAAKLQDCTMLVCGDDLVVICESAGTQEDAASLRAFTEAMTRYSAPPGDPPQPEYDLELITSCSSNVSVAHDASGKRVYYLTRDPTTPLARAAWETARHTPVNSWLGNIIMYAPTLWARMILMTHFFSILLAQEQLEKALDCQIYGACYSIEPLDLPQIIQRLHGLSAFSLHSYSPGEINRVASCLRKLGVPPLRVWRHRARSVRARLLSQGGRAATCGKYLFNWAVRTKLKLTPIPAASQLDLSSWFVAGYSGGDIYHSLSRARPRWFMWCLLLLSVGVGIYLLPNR

Row | SMILES | IC50 [1] | other results
1 | CC(C)(C)C(=O)CC(=O)C(=O)O | > 50 µM | 
2 | O=C(O)C(=O)CC(=O)c1ccccc1 | 5.7 µM | 
3 | O=C(O)C(=O)CCc1ccccc1 | > 50 µM | 
4 | CC(C)(C)c1ccc(C(=O)CC(=O)C(=O)O)cc1 | > 50 µM | 
5 | O=C(O)C(=O)CC(=O)c1cccc(NC(=O)c2ccccc2)c1 | 11 µM | 
6 | Cc1ccc(C(=O)CC(=O)C(=O)O)cc1 | 5 µM | 
7 | COC(=O)C(=O)CC(=O)c1ccccc1 | > 50 µM | 
8 | N#Cc1cccc(COc2cccc(/C(O)=C/C(=O)C(=O)O)c2)c1 | 6.7 µM | 
9 | O=C(O)C(=O)CC(=O)C(c1ccccc1)c1ccccc1 | > 50 µM | 
10 | CC(=O)CC(=O)C(=O)O | > 50 µM | 
11 | O=C(O)C(=O)CC(=O)c1ccccc1OCc1ccccc1 | 44 µM | 
12 | O=C(CC(O)C(=O)O)c1ccccc1 (stereo not given) | > 50 µM | 
13 | O=C(O)C(=O)CC(=O)c1ccco1 | > 50 µM | 
14 | CCCCOc1ccccc1C(=O)CC(=O)C(=O)O | 10 µM | 
15 | O=C(O)C(=O)CC(=O)c1ccncc1 | > 50 µM | 
16 | N#CCCCOc1ccc(OCc2ccccc2C#N)cc1/C(O)=C/C(=O)C(=O)O | > 50 µM | 
17 | O=C(O)C(=O)CC(=O)c1cccnc1 | > 50 µM | 
18 | CCCOc1ccccc1C(=O)CC(=O)C(=O)O | 3.9 µM | 

Further lines, with some results ahead:

Row | IC50 [1] | SMILES | other results
19 | 16.7 µM | O=C(O)C(=O)CC(=O)c1cccc(NCc2ccccc2)c1 | 
20 | 25 µM | CCCCCOc1ccccc1C(=O)CC(=O)C(=O)O | 
21 | 2.5 µM | N#CCCCOc1cccc(/C(O)=C/C(=O)C(=O)O)c1 | 
22 | 30 µM | O=C(O)C(=O)CC(=O)c1cccc(COc2ccccc2)c1 | 
23 | 4.5 µM | O=C(O)C(=O)CC(=O)c1ccsc1 | 
24 | 0.045 µM | N#Cc1c(Cl)cc(Cl)cc1COc1cccc(/C(O)=C/C(=O)C(=O)O)c1 | IC50 (Nucleic Acid [2]): > 5 µM; IC50 [3]: > 50 µM; IC50 (Nucleic Acid [4]): > 5 µM; IC50 (Nucleic Acid [5]): > 5 µM
25 | 0.23 µM | N#Cc1ccccc1COc1cccc(/C(O)=C/C(=O)C(=O)O)c1 | 
26 | 0.11 µM | N#Cc1c(Cl)cccc1COc1cccc(/C(O)=C/C(=O)C(=O)O)c1 | 
27 | 47 µM | CCc1ccc(C(=O)CC(=O)C(=O)O)cc1 | 
28 | 8 µM | O=C(O)C(=O)CC(=O)c1cccc(OCc2ccccc2)c1 | 
29 | 16 µM | O=C(O)C(=O)CC(=O)c1cccc(NS(=O)(=O)c2ccccc2)c1 | 
30 | 0.1 µM | N#Cc1ccc(Br)cc1COc1cccc(/C(O)=C/C(=O)C(=O)O)c1 | 
31 | 0.35 µM | N#CCCCOc1ccccc1C(=O)CC(=O)C(=O)O | 
